In experiment [1] the target is GST tagged BCl-xL ΔC25 protein (Homo sapiens, UniProt Q07817). Briefly: Alphascreen competition binding assay, GST tagged Bcl-xL vs biotinylated Bim BH3-26 peptide. The note with it: competition with Bim BH3-26 peptide; unit inferred. An excerpt: (§1) Measurement of competition of compounds of the invention with Bim26-mer for a Bcl-2 homologue binding site.
(§2) Alphascreen (Amplified Luminescent Proximity Homogenous Assay) is a bead based technology which measures the interaction between molecules. The assay consists of two hydrogel coated beads which, when bought into close proximity by a binding interaction, allow the transfer of singlet oxygen from a donor bead to an acceptor bead.
(§3) Upon binding and excitation with laser light at 680 nm, a photosensitizer in the donor bead converts ambient oxygen to a more excited singlet state. This singlet oxygen then diffuses across to react with a chemiluminescer in the acceptor bead. Fluorophores within the same bead are activated resulting in the emission of light at 580-620 nm.
(§4) Screening of the compounds of the invention was performed using the Alphascreen GST (glutathione s-transferase) detection kit system. Test compounds were titrated into the assay which consisted of GST tagged Bclw ΔC29 protein (0.05 nM Final concentration) and Biotinylated Bim BH3-26 peptide, Biotin-[…] (3.0 nM Final concentration). For the GST tagged BCl-xL assay, GST tagged BCl-xL ΔC25 protein (0.6 nM Final concentration) and Biotinylated Bim BH3-26 peptide, Biotin-[…] (5.0 nM final concentration) were used. To this reaction mix anti-GST coated acceptor beads and Streptavidin coated donor beads, both at 15 μg/ml Final concentration, were added and the assay mixture incubated for 4 hours at room temperature before reading. Similarly when the Bcl-2 protein was Mcl-1, GST tagged Mcl-1 protein (0.4 nM Final concentration) and Biotinylated Bak BH3 peptide, Biotin-[…]-OH (4.0 nM Final concentration) were used.
(§5) • 1) prepare a 384 well with 4.75 μL of buffer and 0.25 μL of compounds (20 mM in DMSO) per well. • 2) Mix the binding partners, in one tube add Bcl-w, BCl-xL or Mcl-1 and the acceptor beads, in the second tube add Biotinylated BH3 peptide and the donor beads. • 3) Pre-incubate the two pairs of binding partners for 30 minutes. • 4) Add 1 μL of acceptor beads:Bcl-w, BCl-xL or Mcl-1 protein mix to each well. • 5) Seal the plate and incubate at room temperature for 30 minutes. • 6) Add 10 μL of donor bead:BH3 peptide mix to each well. • 7) Seal the plate, cover with foil and incubate for 4 hours.
(§6) Assay buffer contained 50 mM Hepes pH 7.4, 10 mM DTT, 100 mM NaCl, 0.05% Tween and 0.1 mg/ml casein. Bead dilution buffer contained 50 mM Tris, pH 7.5, 0.01% Tween and 0.1 mg/ml casein. The final DMSO concentration in the assay was 0.5%. Assays were performed in 384 well white Optiplates and analyzed on the PerkinElmer Fusion alpha plate reader (Ex680, Em520-620 nM).
(§7) The GST Alphascreen detection kit and Optiplates were purchased from PerkinElmer.
(In Alpha technology, singlet oxygen from a donor bead excites a nearby acceptor bead.)

The target of experiment [2] is GST tagged Mcl-1 protein (Homo sapiens, UniProt Q07820). Briefly: Alphascreen competition binding assay, GST tagged Mcl-1 vs biotinylated Bak BH3 peptide. The note with it: competition with Bak BH3 peptide; unit inferred.
Sequence of GST tagged Mcl-1 protein (Q07820 whole entry): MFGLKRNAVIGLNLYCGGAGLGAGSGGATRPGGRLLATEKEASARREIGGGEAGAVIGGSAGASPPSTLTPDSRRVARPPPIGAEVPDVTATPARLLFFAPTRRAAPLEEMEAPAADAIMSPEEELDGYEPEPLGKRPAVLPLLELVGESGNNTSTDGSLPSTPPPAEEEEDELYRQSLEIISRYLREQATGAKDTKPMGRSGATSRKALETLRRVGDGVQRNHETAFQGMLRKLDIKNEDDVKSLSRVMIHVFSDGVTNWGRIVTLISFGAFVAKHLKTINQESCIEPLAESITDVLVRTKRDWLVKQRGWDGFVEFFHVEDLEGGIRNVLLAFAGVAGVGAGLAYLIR
Source text: as §1, §2, §3, §4, §5, §6, §7

Experiment [3] relates to SCLC cell line NCI-H146. Briefly: CellTitre-Glow luminescent cytotoxicity assay, NCI-H146. The experiment is classed as cell-based. Conditions: Homo sapiens; NCI-H146 cells, 48 hr incubation. How it is done: (§8) • 1. SCLC cell lines NCI-H889, NCI-H1963, and NCI-H146 were purchased from American Type Culture Collection. Cells were maintained in RPMI 1640 (Invitrogen Corp., Grand Island, N.Y.) supplemented with 10% fetal bovine serum (FBS, Invitrogen), 1% sodium pyruvate, 25 mM HEPES, 4.5 g/L glucose and 1% penicillin/streptomycin (Sigma) in a humidified chamber at 37° C. containing 5% CO2. • 2. cells were grown as suspension aggregates in a T162 flask with 25 ml medium and kept at concentration of 1 million/mL. Test Compound Stocks: • 1. test compounds were prepared as 10 mM stocks in DMSO and stored at −20° C. Test Compound Serial Dilutions: • 1. prewarmed medium to 37° C. • 2. thawed compounds to room temperature. • 3. determined what will be the highest concentration to be tested. (i.e. 10 μM). • 4. prepared a 2× stock in culture medium of the first dose (i.e. 2×10 μM=20 μM) in an Eppendorf tube (i.e. 4 μl of 5 mM stock into 1000 μl=20 μM). • 5. inverted tube several times to mix. […] Columns 1-10 comprised the serial test compound treatments, column 11 was the untreated control and column 12 was the ‘no cell’ control for determining the background. • 1. in a 96 well plate was added 50 μl medium/well in columns 2 thru 11 and 100 μl was added to column 12. • 2. in column 1 was added 100 μl of 2× compound. • 3. made serial dilutions by transferring 50 μl to column 2, and so on up to column 10. After adding 50 μl to column 10 and mixing, discarded 50 μl. • 4. stored plates at 37° C. until ready to add cells. Cell Preparation • 1. Cell were washed one time in the culture medium and prepared as a suspension. • a. cell were first spun down to remove the medium and then ˜1 ml 0.25% trypsin was added and gently mixed and incubated for no more than three minutes at room temperature. • b. ˜10 ml of the medium was added and the cells were gently pipetted several times. • c. cells were then counted and spun down to the volume necessary for the total cell number needed, then resuspended in the medium to 200 cells/μl concentration (50,000 cells/well). • 2. […]

The test system of experiment [4] is SCLC cell line NCI-H889. Nature of the experiment: CellTitre-Glow luminescent cytotoxicity assay, NCI-H889. The experiment is classed as cell-based. The note with it: Homo sapiens; NCI-H889 cells, 48 hr incubation. The protocol:
as §8

The subject of experiment [5] is SCLC cell line NCI-H1963. Nature of the experiment: CellTitre-Glow luminescent cytotoxicity assay, NCI-H1963. The experiment is classed as cell-based. Conditions: Homo sapiens; NCI-H1963 cells, 48 hr incubation. The protocol:
as §8

Experiment [6] deals with mouse embryo fibroblasts (MEFs): wild type, Bax/Bak double knockout, Noxa-expressing, Bad-expressing. Nature of the experiment: Cell viability assay on mouse embryo fibroblasts (propidium iodide uptake). The format is cell-based. The note with it: propidium iodide uptake after 24 hours, FIG. 1A/1B. The protocol:
FIG. 1 graphically depicts the effect of Compound 1 (FIG. 1A) and Etoposide (FIG. 1B), at increasing concentrations, on the % viability of certain mouse embryo fibroblast (MEF) cells as assessed by propidium iodide uptake after 24 hours. Noxa and Bad were introduced by retrovirally infecting the cells with pMIG retroviruses as described by Chen et al., 2005.
The efficacy of the compounds of the present invention can also be determined in cell based killing assays using a variety of cell lines and mouse tumor models. For example, their activity on cell viability can be assessed on a panel of cultured tumorigenic and non-tumorigenic cell lines, as well as primary mouse or human cell populations, e.g. lymphocytes. For these assays, 5,000-20,000 cells are cultured at 37° C. and 10% CO2 in appropriate growth media, eg: 100 μL Dulbecco's Modified Eagle's medium supplemented with 10% foetal calf serum, asparaginase and 2-mercaptoethanol in the case of pre-B Eμ-Myc mouse tumors in 96 well plates. […] Cell viability is determined by the ability of the cells to exclude propidium iodide (10 μg/mL by immunofluorescence analysis of emission wavelengths of 660-675 nm on a flow cytometer (BD FACScan). Alternatively, a high throughput calorimetric assay such as the Cell Titre 96 could be used. Aqueous Non-Radioactive Cell Proliferation Assay (Promega) may be used. Cell death by apoptosis is confirmed by pre-incubation of the cells with 50 μM of a caspase inhibitor such as zVAD-fmk.
Neutralisation of both Bcl-xL and Mcl-1 anti-apoptotic proteins in normal cells is required before a cell undergoes apoptosis via the downstream Bax/Bak pathway [Chen et al., 2005; Willis et al., 2005]. A compound that only targets Bcl-xL should not affect normal cells, but could kill certain cancer cells if they rely more on Bcl-xL and less on Mcl-1 for survival. To mirror this, compound 1 was tested for its effect on survival of wild type (wt) mouse embryo fibroblasts (MEFs), Bax/Bak double knockout (BB DKO) MEFs, MEFs that expressed Noxa, and MEFs that expressed Bad. Noxa specifically neutralizes Mcl-1.

Sequence of GST tagged BCl-xL ΔC25 protein (Q07817 1-208 limits assumed): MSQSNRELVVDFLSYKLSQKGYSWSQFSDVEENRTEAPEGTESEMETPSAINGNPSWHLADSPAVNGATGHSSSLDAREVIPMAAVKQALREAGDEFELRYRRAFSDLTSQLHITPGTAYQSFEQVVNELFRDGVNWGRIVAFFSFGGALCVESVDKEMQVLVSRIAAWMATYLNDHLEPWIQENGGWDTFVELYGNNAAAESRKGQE

By IC50 is commonly meant the concentration that gives 50% inhibition. The low end stands for greater potency in that assay, the high end for weaker potency in that assay. What is called EC50 is the concentration that produces a half-maximal response. Low values mean greater potency, high ones weaker potency. `CN(C)CC[C@H](CSc1ccccc1)Nc1ccc(S(=O)(=O)Nc2ncnc3cc(N4CCN(Cc5ccccc5-c5ccc(Cl)cc5)CC4)ccc23)cc1[N+](=O)[O-]` [Compound 1, N-{7-[4-(4′-Chloro-biphenyl-2-ylmethyl)-piperazin-1-yl]-quinazolin-4-yl}-4-((R)-3-dimethylamino-1-phenylsulfanylmethyl-propylamino)-3-nitro-benzenesulfonamide]: the IC50 in experiment [1] stood at 7 nM; in experiment [2], 9000 nM. Moreover, the figures for the EC50 in experiment [3], in experiment [4] and in experiment [5] were 0.61 µM, 0.21 µM and 0.17 µM, respectively. Moreover, the “Selectivity of killing of Noxa-expressing MEFs versus MEFs where both Bcl-xL and Mcl-1 are protective (% viability)” value in experiment [6] is “much more sensitive to killing”.

(Values after patent publication US8168645B2, “Arylsulfonamide compounds” (Genentech, Inc., priority 2006, dated 2012).)
